# Experimental data from patent US11661426B2, “Imidazole-containing inhibitors of ALK2 kinase” (BioCryst Pharmaceuticals, Inc., priority 2017, dated 2023).
# Target: ALK2 (Homo sapiens (Human), UniProt Q04771)
# Test: ALK2 inhibition, LanthaScreen Eu Kinase Binding Assay (ThermoFisher Scientific / Life Technologies)
# Conditions: read-out: Measured Ki (IC50) Value for Compounds: IC50
# Procedure: Biochemical assays to measure the inhibitory effects of the compounds were performed by ThermoFisher Scientific (Life Technologies). ALK2 inhibition was tested using LanthaScreen™ Eu Kinase Binding Assay screening protocol.
# Sequence of ALK2 (Q04771 21-509): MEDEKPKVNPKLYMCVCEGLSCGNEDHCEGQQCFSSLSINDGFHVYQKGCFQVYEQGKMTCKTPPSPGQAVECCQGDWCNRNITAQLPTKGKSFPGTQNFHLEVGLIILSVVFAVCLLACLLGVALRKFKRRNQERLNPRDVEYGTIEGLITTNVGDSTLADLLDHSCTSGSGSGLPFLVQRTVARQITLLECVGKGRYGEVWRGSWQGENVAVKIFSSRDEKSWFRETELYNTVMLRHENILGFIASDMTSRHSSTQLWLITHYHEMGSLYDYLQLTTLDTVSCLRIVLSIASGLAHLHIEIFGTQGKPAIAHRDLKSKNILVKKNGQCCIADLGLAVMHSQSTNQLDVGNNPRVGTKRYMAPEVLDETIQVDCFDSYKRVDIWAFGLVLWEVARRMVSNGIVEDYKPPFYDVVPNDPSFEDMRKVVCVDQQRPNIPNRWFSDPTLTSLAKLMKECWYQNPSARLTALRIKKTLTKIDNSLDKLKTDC
row,IC50 [nM],SMILES
1,100 to 1000,"COc1cc(-n2cnc(Nc3nc(N4CCC[C@@H]4CO)c4cccn4n3)c2)cc(OC)c1OC [Compound 227b, (R)-(1-(2-((1-(3,4,5-trimethoxyphenyl)-1H-imidazol-4-yl)amino)pyrrolo[2,1-f][1,2,4]triazin-4-yl)pyrrolidin-2-yl)methanol]"
2,100 to 1000,"COc1cncc(-n2cnc(Nc3nc(N4CCC[C@H]4CO)c4cccn4n3)c2)c1 [Compound 228d, (S)-(1-(2-((1-(5-methoxypyridin-3-yl)-1H-imidazol-4-yl)amino)pyrrolo[2,1-f][1,2,4]triazin-4-yl)pyrrolidin-2-yl)methanol]"
3,100 to 1000,"COc1ccc(-n2cnc(Nc3nc(N4CCC[C@H]4CO)c4cccn4n3)c2)cc1C(F)(F)F [Compound 229d, (S)-(1-(2-((1-(4-methoxy-3-(trifluoromethyl)phenyl)-1H-imidazol-4-yl)amino)pyrrolo[2,1-f][1,2,4]triazin-4-yl)pyrrolidin-2-yl)methanol]"
4,> 1000,"COc1cc(-n2cnc(Nc3nc(N4CCC[C@H]4C(N)=O)c4cccn4n3)c2)cc(C(N)=O)c1OC [Compound 230f, (S)-1-(2-((1-(3-carbamoyl-4,5-dimethoxyphenyl)-1H-imidazol-4-yl)amino)pyrrolo[2,1-f][1,2,4]triazin-4-yl)pyrrolidine-2-carboxamide]"
5,100 to 1000,"COc1cc(-n2cnc(Nc3nc(N4CCC[C@H]4CO)c4cccn4n3)c2)cc(C(N)=O)c1OC [Compound 231a, (S)-5-(4-((4-(2-(hydroxymethyl)pyrrolidin-1-yl)pyrrolo[2,1-f][1,2,4]triazin-2-yl)amino)-1H-imidazol-1-yl)-2,3-dimethoxybenzamide]"
6,100 to 1000,"COc1cc(-n2cnc(Nc3nc(N4CCCC4)c4ncsc4n3)c2)cc(OC)c1OC [Compound 233b, 7-(pyrrolidin-1-yl)-N-(1-(3,4,5-trimethoxyphenyl)-1H-imidazol-4-yl)thiazolo[5,4-d]pyrimidin-5-amine]"
7,100 to 1000,"COc1cc(-n2cnc(Nc3nc(N4CCC[C@H]4CO)c4cccn4n3)c2)cc(C(C)=O)c1OC [Compound 234e, (S)-1-(5-(4-((4-(2-(hydroxymethyl)pyrrolidin-1-yl)pyrrolo[2,1-f][1,2,4]triazin-2-yl)amino)-1H-imidazol-1-yl)-2,3-dimethoxyphenyl)ethanone]"
8,< 100,"COc1cc(-n2cnc(Nc3nc(N4CCN(C)CC4)nc4ccoc34)c2)cc(OC)c1OC [Compound 235a, 2-(4-methylpiperazin-1-yl)-N-(1-(3,4,5-trimethoxyphenyl)-1H-imidazol-4-yl)furo[3,2-d]pyrimidin-4-amine]"
9,< 100,"COc1cc(-n2cnc(Nc3nc(N4CC[C@@H](O)C4)nc4ccoc34)c2)cc(OC)c1OC [Compound 236a, (R)-1-(4-((1-(3,4,5-trimethoxyphenyl)-1H-imidazol-4-yl)amino)furo[3,2-d]pyrimidin-2-yl)pyrrolidin-3-ol]"
10,< 100,"COc1cc(-n2cnc(Nc3nc(N4CC[C@H](O)C4)nc4ccoc34)c2)cc(OC)c1OC [Compound 237a, (S)-1-(4-((1-(3,4,5-trimethoxyphenyl)-1H-imidazol-4-yl)amino)furo[3,2-d]pyrimidin-2-yl)pyrrolidin-3-ol]"
11,< 100,"COc1cc(-n2cnc(Nc3nc(N4CCC[C@@H]4CO)nn4cccc34)c2)cc(OC)c1OC [Compound 238a, (R)-(1-(4-((1-(3,4,5-trimethoxyphenyl)-1H-imidazol-4-yl)amino)pyrrolo[2,1-f][1,2,4]triazin-2-yl)pyrrolidin-2-yl)methanol]"
12,< 100,"COc1cc(-n2cnc(Nc3nc4c(c(N5CCC[C@H]5CO)n3)CN(C(=O)C3CC3)CC4)c2)cc(OC)c1OC [Compound 239a, (S)-cyclopropyl(4-(2-(hydroxymethyl)pyrrolidin-1-yl)-2-((1-(3,4,5-trimethoxyphenyl)-1H-imidazol-4-yl)amino)-7,8-dihydropyrido[4,3-d]pyrimidin-6(5H)-yl)methanone]"
13,< 100,"COc1cc(-n2cnc(Nc3nc4c(c(N5CCC[C@H]5CO)n3)CN(C(=O)[C@@H]3CCC(=O)N3)CC4)c2)cc(OC)c1OC [Compound 240a, (S)-5-(4-((S)-2-(hydroxymethyl)pyrrolidin-1-yl)-2-((1-(3,4,5-trimethoxyphenyl)-1H-imidazol-4-yl)amino)-5,6,7,8-tetrahydropyrido[4,3-d]pyrimidine-6-carbonyl)pyrrolidin-2-one]"
14,< 100,"COc1cc(-n2cnc(Nc3nc4c(c(N5CCC[C@H]5CO)n3)CN(C(=O)c3ccc(C#N)cc3)CC4)c2)cc(OC)c1OC [Compound 241a, (S)-4-(4-(2-(hydroxymethyl)pyrrolidin-1-yl)-2-((1-(3,4,5-trimethoxyphenyl)-1H-imidazol-4-yl)amino)-5,6,7,8-tetrahydropyrido[4,3-d]pyrimidine-6-carbonyl)benzonitrile]"
15,100 to 1000,"COc1cc(OC)cc(-n2cnc(Nc3nc(N4CCC[C@H]4CO)c4cccn4n3)c2)c1 [Compound 242a, (S)-(1-(2-((1-(3,5-dimethoxyphenyl)-1H-imidazol-4-yl)amino)pyrrolo[2,1-f][1,2,4]triazin-4-yl)pyrrolidin-2-yl)methanol]"
16,100 to 1000,"COc1ccc(-n2cnc(Nc3nc(N4CCC[C@H]4CO)c4cccn4n3)c2)cc1OC [Compound 243a, (S)-(1-(2-((1-(3,4-dimethoxyphenyl)-1H-imidazol-4-yl)amino)pyrrolo[2,1-f][1,2,4]triazin-4-yl)pyrrolidin-2-yl)methanol]"
17,< 100,"COc1cc(-n2cnc(Nc3nc(N4CCC[C@H]4CO)c4ccc(OC(C)C)cc4n3)c2)cc(OC)c1OC [Compound 244b, (S)-(1-(7-isopropoxy-2-((1-(3,4,5-trimethoxyphenyl)-1H-imidazol-4-yl)amino)quinazolin-4-yl)pyrrolidin-2-yl)methanol]"
18,< 100,"COc1cc(-n2cnc(Nc3nc(N4CCC[C@H]4C(N)=O)nn4c(CN5CCNCC5)ccc34)c2)cc(OC)c1OC [Compound 245c, (S)-1-(7-(piperazin-1-ylmethyl)-4-((1-(3,4,5-trimethoxyphenyl)-1H-imidazol-4-yl)amino)pyrrolo[2,1-f][1,2,4]triazin-2-yl)pyrrolidine-2-carboxamide]"
19,< 100,"COc1cc(-n2cnc(Nc3nc(N4CC[C@@H](CO)C4)nc4ccoc34)c2)cc(OC)c1OC [Compound 246a, (R)-(1-(4-((1-(3,4,5-trimethoxyphenyl)-1H-imidazol-4-yl)amino)furo[3,2-d]pyrimidin-2-yl)pyrrolidin-3-yl)methanol]"
20,< 100,"COc1cc(-n2cnc(Nc3nc(N4CCC[C@H]4C(=O)NC4CC4)nc4ccoc34)c2)cc(OC)c1OC [Compound 247b, (S)—N-cyclopropyl-1-(4-((1-(3,4,5-trimethoxyphenyl)-1H-imidazol-4-yl)amino)furo[3,2-d]pyrimidin-2-yl)pyrrolidine-2-carboxamide]"
21,< 100,"COc1cc(-n2cnc(Nc3nc(N4CCC[C@H]4C(=O)NCC4CC4)nc4ccoc34)c2)cc(OC)c1OC [Compound 248a, (S)—N-(cyclopropylmethyl)-1-(4-((1-(3,4,5-trimethoxyphenyl)-1H-imidazol-4-yl)amino)furo[3,2-d]pyrimidin-2-yl)pyrrolidine-2-carboxamide]"
22,100 to 1000,"COc1cc(Cl)cc(-n2cnc(Nc3nc(N4CCC[C@H]4CO)c4cccn4n3)c2)c1 [Compound 249d, (S)-(1-(2-((1-(3-chloro-5-methoxyphenyl)-1H-imidazol-4-yl)amino)pyrrolo[2,1-f][1,2,4]triazin-4-yl)pyrrolidin-2-yl)methanol]"
23,> 1000,"COc1cc(-n2cnc(Nc3nc(N4CCC[C@H]4CO)c4cccn4n3)c2)ccc1Cl [Compound 250d, (S)-(1-(2-((1-(4-chloro-3-methoxyphenyl)-1H-imidazol-4-yl)amino)pyrrolo[2,1-f][1,2,4]triazin-4-yl)pyrrolidin-2-yl)methanol]"
24,< 100,"COc1cc(-n2cnc(Nc3nc(N4CC[C@@H](N(C)C)C4)nc4ccoc34)c2)cc(OC)c1OC [Compound 251a, (R)-2-(3-(dimethylamino)pyrrolidin-1-yl)-N-(1-(3,4,5-trimethoxyphenyl)-1H-imidazol-4-yl)furo[3,2-d]pyrimidin-4-amine]"
25,< 100,"CNC(=O)[C@@H]1CCCN1c1nc(Nc2cn(-c3cc(OC)c(OC)c(OC)c3)cn2)c2occc2n1 [Compound 252a, (S)—N-methyl-1-(4-((1-(3,4,5-trimethoxyphenyl)-1H-imidazol-4-yl)amino)furo[3,2-d]pyrimidin-2-yl)pyrrolidine-2-carboxamide]"
26,> 1000,"COc1cc(-n2cnc(Nc3nc(N4CCC[C@H]4C(N)=O)nc4cnn(C)c34)c2)cc(OC)c1OC [Compound 253c, (S)-1-(1-methyl-7-((1-(3,4,5-trimethoxyphenyl)-1H-imidazol-4-yl)amino)-1H-pyrazolo[4,3-d]pyrimidin-5-yl)pyrrolidine-2-carboxamide]"
27,< 100,"COc1cc(-n2cnc(Nc3nc(N4CCC[C@H]4CO)nc4c3CCN(CCC(N)=O)C4)c2)cc(OC)c1OC [Compound 254a, (S)-3-(2-(2-(hydroxymethyl)pyrrolidin-1-yl)-4-((1-(3,4,5-trimethoxyphenyl)-1H-imidazol-4-yl)amino)-5,6-dihydropyrido[3,4-d]pyrimidin-7(8H)-yl)propanamide]"
28,< 100,"COc1cc(-n2cnc(Nc3nc(N4CCC[C@H]4C(N)=O)nc4c3CCN(CCC(N)=O)C4)c2)cc(OC)c1OC [Compound 255a, (S)-1-(7-(3-amino-3-oxopropyl)-4-((1-(3,4,5-trimethoxyphenyl)-1H-imidazol-4-yl)amino)-5,6,7,8-tetrahydropyrido[3,4-d]pyrimidin-2-yl)pyrrolidine-2-carboxamide]"
29,> 1000,"CCOc1ccc(-n2cnc(Nc3nc(N4CCC[C@H]4CO)c4cccn4n3)c2)cc1OCC [Compound 256d, (S)-(1-(2-((1-(3,4-diethoxyphenyl)-1H-imidazol-4-yl)amino)pyrrolo[2,1-f][1,2,4]triazin-4-yl)pyrrolidin-2-yl)methanol]"
30,100 to 1000,"COc1cc(C)cc(-n2cnc(Nc3nc(N4CCC[C@H]4CO)c4cccn4n3)c2)c1 [Compound 257d, (S)-(1-(2-((1-(3-methoxy-5-methylphenyl)-1H-imidazol-4-yl)amino)pyrrolo[2,1-f][1,2,4]triazin-4-yl)pyrrolidin-2-yl)methanol]"
